The subject of data set [1] is murine adenocarcinoma NT (CaNT) tumor. In words: tumor growth delay in CaNT tumor-bearing mice. It is filed as in vivo. Here is the method: (§1) 1) Transplanted tumor model. A murine adenocarcinoma NT (“CaNT”) tumor was transplanted from a syngeneic donor and implanted subcutaneously onto the rear dorsum of 10-16 week old female CBA/Gy f TO mice, by injecting 0.05 ml of a crude cell suspension prepared by mechanical dissociation of the excised. Tumors were selected for treatment with the VTA CA4DP when the geometric mean diameter (“GMD”) reached 5-6.5 mm (150-300 mg), approximately 3-4 weeks after implantation.
(§2) In each of the following Examples 1-4, CA4DP (OXiGENE Inc, Watertown, Mass., USA) was dissolved in 0.9% saline at appropriate concentrations to allow each dose to be injected i.p. in 0.1 ml per 10 g body weight. 0.9% saline was used for control treatments.
(§3) The anti-tumor effect of split dosing therapy was also assessed by an analysis of tumor growth delay in both CaNT and T138 tumor-bearing mice. For experiments involving the CaNT, dose groups comprised 5 to 6 animals, whereas for the T138, 10 to 15 animals were used. Following initial drug treatment, tumor growth was determined by measuring the diameter of each tumor in 3 orthogonal orientations two or three days each week.
The effect of repeated split VTA dosing therapy was also assessed by an analysis of tumor growth delay in both CaNT tumor-bearing mice. […] Repeated administration of total daily dose (50 mg/kg) 5 days a week for 2 weeks, produced a significant delay in tumor growth of approximately 2 days. Tumor growth delay was further improved by repeat administration of split dosing (2 doses of 25 mg/kg per day separated by a 6 hour interval), 5 days a week for 2 weeks (growth delay of approximately 5 days).

In data set [2] the test system is microtubule assembly in tumor endothelium. Particulars: cited from earlier work.
The next data set concerns T138 tumor vasculature. In words: functional vascular volume (Hoechst 33342) in T138 tumors. It is filed as in vivo, mice. Particulars: 24 hours post-treatment. How it is done:
(§4) 2) Spontaneous T138 tumor model. The T138 tumor-bearing mice (“T138”) spontaneously developed mammary tumors between 5 and 18 months of age due to genetic predisposition.
as §2
The effect of VTA dose splitting on the tumor vascular response was also investigated in both CaNT and T138 tumor types, by measuring the functional vascular volume at 24 hours following treatment with single or split doses of CA4DP. Functional vascular volume is defined as the volume of tumor tissue perfused by tumor blood vessels, and is measured using the fluorescent DNA-binding dye Hoechst 33342 (Sigma-Aldrich Company Ltd., Dorset, UK) (Smith et al, British Journal of Cancer, 1988, 57: 247-253). […] Functional vessels were identified by the fluorescent outline of perivascular tissue and vascular volumes were determined using a random point scoring system based on that described by Chalkley (Chalkley, J. Natl Cancer Inst., 1943, 4: 47-53). At least 100 fields were scored at each of the three tumor levels and the results for treated tumors were expressed as a percentage of control values.

In data set [3] the test system is spontaneous T138 mammary tumors. Briefly: tumor growth delay in T138 tumor-bearing mice. It is filed as in vivo. How it is done: as §4, §2, §3
The subject of data set [4] is murine adenocarcinoma NT (CaNT) tumor. In words: in vitro clonogenic (colony-forming) assay of tumor cells isolated from treated CaNT tumor-bearing animals. In kind it is in vivo, mice. How it is done: as §1, §2
To compare the anti-tumor effect of single and divided VTA dose scheduling, the survival of tumor cells isolated from a treated CaNT tumor-bearing animals was assessed by an in vitro clonogenic (colony-forming) assay, as described previously (Chaplin et al., Anticancer Research, 1999, 19: 189-196). Tumors were excised 18-24 h after CA4P injection. Two tumors were combined for each data point, weighed, minced with scissors and then disaggregated for 1 hour at 37° C. in an enzyme cocktail of 1 mg/ml pronase, 0.5 mg/ml DNase and 0.5 mg/ml collagenase. Following digestion, samples were passed through a 25G needle and a 35 μm filter to obtain a single cell suspension. Haemocytometer counts of trypan-blue excluding cells were made and known numbers of viable cells added to a feeder layer of heavily irradiated V79-379A Chinese hamster cells. After 7-10 days incubation, colonies were fixed, stained with methylene blue and counted. The data were calculated as surviving fraction per gram of tumor, which is a product of relative surviving fraction and relative cell yield per gram of tumor. Each experimental group was repeated at least 3 times, so that at least 6 tumors contribute to each data point.

Another data set concerns CaNT tumor vasculature. In words: functional vascular volume (Hoechst 33342) in CaNT tumors. Conditions: for reduction in perfused vascular volume: CaNT, 24 hours post-treatment. In kind it is in vivo, mice. How it is done: as §1, §2
The effect of VTA dose splitting on the tumor vascular response was also investigated in both CaNT and T138 tumor types, by measuring the functional vascular volume at 24 hours following treatment with single or split doses of CA4DP. Functional vascular volume is defined as the volume of tumor tissue perfused by tumor blood vessels, and is measured using the fluorescent DNA-binding dye Hoechst 33342 (Sigma-Aldrich Company Ltd., Dorset, UK) (Smith et al, British Journal of Cancer, 1988, 57: 247-253). The dye was dissolved in 0.9% saline at 6.25 mg/ml and injected i.v. at a dose of 10 mg/kg at 24 hours post-treatment. Tumors were excised and frozen 1 minute later. Sections were cut at three levels and observed under UV illumination. Functional vessels were identified by the fluorescent outline of perivascular tissue and vascular volumes were determined using a random point scoring system based on that described by Chalkley (Chalkley, J. Natl Cancer Inst., 1943, 4: 47-53). At least 100 fields were scored at each of the three tumor levels and the results for treated tumors were expressed as a percentage of control values.

The conditions of data set [5]: human plasma; cited from earlier work.
A further data set concerns tubulin. Particulars: U.S. Pat. No. 4,996,237; cited from earlier work.

Each structure is given as a SMILES string.

On to `COc1ccc(/C=C\c2cc(OC)c(OC)c(OC)c2)cc1OP(=O)([O-])[O-].[Na+].[Na+]` [CA4DP, Combretastatin A-4 Disodium Phosphate Prodrug], for which the tumor growth delay result in data set [1] (CaNT mice, single 200 mg/kg dose i.p.) is recorded as “did not delay growth relative to control”; in data set [1] (CaNT mice, two equal doses of 100 mg/kg separated by 3 hours), “approximately 3 days”; in data set [1] (CaNT, repeated split dosing, 2 doses of 25 mg/kg per day separated by 6 hours, 5 days a week for 2 weeks), “approximately 5 days”; in data set [1] (CaNT, repeated total daily dose 50 mg/kg, 5 days a week for 2 weeks), “approximately 2 days”; in data set [3] (single dose of 500 mg/kg), “no effect on tumor growth”; in data set [3] (two equal doses of 250 mg/kg separated by 3 hours), “approximately 4 days”. Further, the “effect on tumor growth relative to control” value in data set [1] (CaNT, single dose 50 mg/kg) is reported as “only minimal effects on tumor growth”. Besides, the “inhibition of microtubule assembly” value in data set [2] was “potent inhibitor of microtubule assembly”. Moreover, in the data set with T138 tumor vasculature (T138, single dose 200 mg/kg), the “reduction of perfused vascular volume” value is recorded as “completely ineffective”. Moreover, the “amount of perfused vascular tissue, of the control value” in the data set with T138 tumor vasculature (T138, two split doses of 100 mg/kg) is recorded as 50%. For the same compound, the “cell killing (surviving fraction of tumor cells)” value is given as “significantly more cell killing” in data set [4] (two equal doses of 100 mg/kg i.p. separated by 1-6 hours, compared with a single 200 mg/kg dose, tumors excised 18-24 h after injection); “most pronounced” in data set [4] (two equal doses of 100 mg/kg, time interval between doses 2 to 4 hours (p<0.05)); “less effective than equal doses of treatment” in data set [4] (unequal doses separated by 4 hours, compared with equal doses). Besides, the “reduction in perfused vascular volume” value was found to be 40% in the data set with CaNT tumor vasculature (single 50 mg/kg dose) and 80% with CaNT tumor vasculature (two 25 mg/kg doses separated by 3 hours). For the same compound, in the data set with CaNT tumor vasculature (two equal split doses compared with a single dose, observed in both CaNT and T138 tumor models), the “reducing the fraction of perfused vascular volume” value is on record as “significantly more effective than a single dose”.

For `COc1ccc(/C=C\c2cc(OC)c(OC)c(OC)c2)cc1O` [CA-4, Combretastatin A-4], the solubility entry in data set [5] is “insolubility”. Further, the tubulin binding activity entry in the data set with tubulin is “found to have tubulin binding activity”.

The values are drawn from patent US20060135625A1, “Method of administering split doses of a vascular targeting agent” (priority 2002, published 2006).
